Assay results from article PMC2865582 (Journal of medicinal chemistry, 2010).

Key:
GIVA cPLA2 = target: T1, GIVA cPLA2 (Homo sapiens, UniProt P47712); assay: Mixed micelle-based; format: biochemical; conditions: for times more potent for GVIA iPLA2 than for GIVA cPLA2: ratio of XI(50) values; for inhibition at 0.091 mole fraction: read-out: GIVA cPLA2 % Inhibition
T1 sequence (P47712 1-749): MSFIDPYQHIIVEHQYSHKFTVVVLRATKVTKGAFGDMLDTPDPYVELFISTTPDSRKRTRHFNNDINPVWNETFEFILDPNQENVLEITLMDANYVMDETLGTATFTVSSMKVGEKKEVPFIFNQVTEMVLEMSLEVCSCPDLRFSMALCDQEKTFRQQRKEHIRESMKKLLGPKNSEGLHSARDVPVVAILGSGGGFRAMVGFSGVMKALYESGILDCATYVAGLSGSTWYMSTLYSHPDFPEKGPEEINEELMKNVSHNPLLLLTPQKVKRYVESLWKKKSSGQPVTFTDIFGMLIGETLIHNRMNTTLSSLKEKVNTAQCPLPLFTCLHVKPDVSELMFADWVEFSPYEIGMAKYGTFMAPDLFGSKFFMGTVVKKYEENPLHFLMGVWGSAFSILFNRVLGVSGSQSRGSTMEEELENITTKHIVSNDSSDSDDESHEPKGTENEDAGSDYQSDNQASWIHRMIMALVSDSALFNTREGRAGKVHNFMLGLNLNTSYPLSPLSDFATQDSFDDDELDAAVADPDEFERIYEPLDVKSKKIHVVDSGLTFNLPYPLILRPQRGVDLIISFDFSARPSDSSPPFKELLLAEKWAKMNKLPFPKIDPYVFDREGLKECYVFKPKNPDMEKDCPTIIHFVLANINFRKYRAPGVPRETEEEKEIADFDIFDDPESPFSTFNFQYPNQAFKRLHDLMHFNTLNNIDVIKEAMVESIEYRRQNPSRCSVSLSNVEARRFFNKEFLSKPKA

GV sPLA2 = target: T2, GV sPLA2 (Homo sapiens, UniProt P39877); assay: Mixed micelle-based; format: biochemical; conditions: lower bound from % inhibition at 0.091 mole fraction
T2 sequence (P39877 21-138): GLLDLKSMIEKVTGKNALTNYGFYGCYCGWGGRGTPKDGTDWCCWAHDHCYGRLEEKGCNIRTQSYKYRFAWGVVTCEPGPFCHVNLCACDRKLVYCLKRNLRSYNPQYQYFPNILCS

human GVIA iPLA2 = target: T3, human GVIA iPLA2 (Homo sapiens, UniProt O60733); conditions: previous mixed micelle assay with DPPC substrate; cited from earlier work
T3 sequence (O60733 1-806): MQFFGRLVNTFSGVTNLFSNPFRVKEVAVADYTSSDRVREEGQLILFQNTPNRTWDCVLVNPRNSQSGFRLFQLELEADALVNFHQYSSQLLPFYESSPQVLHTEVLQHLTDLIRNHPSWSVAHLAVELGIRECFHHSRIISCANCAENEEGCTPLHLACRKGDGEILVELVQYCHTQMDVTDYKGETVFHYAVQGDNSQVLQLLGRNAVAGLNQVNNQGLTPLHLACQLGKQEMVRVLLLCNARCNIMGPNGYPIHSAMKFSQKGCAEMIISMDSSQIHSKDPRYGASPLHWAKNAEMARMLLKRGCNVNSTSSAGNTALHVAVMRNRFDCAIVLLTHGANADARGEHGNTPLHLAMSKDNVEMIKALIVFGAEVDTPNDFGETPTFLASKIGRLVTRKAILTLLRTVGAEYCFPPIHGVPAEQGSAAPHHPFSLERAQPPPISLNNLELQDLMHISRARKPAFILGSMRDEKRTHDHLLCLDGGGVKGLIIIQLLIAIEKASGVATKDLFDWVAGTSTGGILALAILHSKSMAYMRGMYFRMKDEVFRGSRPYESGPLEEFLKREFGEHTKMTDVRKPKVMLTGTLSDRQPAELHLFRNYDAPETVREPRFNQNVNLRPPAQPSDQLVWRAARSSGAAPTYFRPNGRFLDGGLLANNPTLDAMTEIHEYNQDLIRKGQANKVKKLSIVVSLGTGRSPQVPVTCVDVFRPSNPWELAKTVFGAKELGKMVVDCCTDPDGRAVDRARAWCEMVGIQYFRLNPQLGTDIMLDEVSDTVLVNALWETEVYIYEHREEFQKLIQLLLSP

[1] = tested on: experimental autoimmune encephalomyelitis; conditions: animal model of multiple sclerosis; cited from earlier work

| Molecule | times more potent for GVIA iPLA2 than for GIVA cPLA2 (GIVA cPLA2) | times more potent for GVIA iPLA2 than for GV sPLA2 (GV sPLA2) | inhibition at 0.091 mole fraction (GIVA cPLA2) | other results |
| --- | --- | --- | --- | --- |
| O=C(CCCCc1ccc2ccccc2c1)C(F)(F)C(F)(F)C(F)(F)F [12i, 1,1,1,2,2,3,3-Heptafluoro-8-(naphthalen-2-yl)octan-4-one] | at least 90 times | at least 90 times |  |  |
| O=C(CCCCc1ccc2ccccc2c1)C(F)(F)F [12g, 1,1,1-Trifluoro-6-(naphthalen-2-yl)hexan-2-one] |  | > 455 times |  | GIVA cPLA2 XI(50) (GIVA cPLA2; mole fraction of inhibitor in total substrate interface giving 50% inhibition): 0.039 ± 0.001 mole fraction |
| 1,1,1,2,2,3,3,5-octafluoro-7-phenyloctan-4-one [compound 25] | 76 times | > 180 times |  |  |
| O=C(CCCCCc1ccccc1)C(F)(F)C(F)(F)C(F)(F)F [6b, 1,1,1,2,2,3,3-Heptafluoro-9-phenylnonan-4-one] |  |  | < 25% |  |
| O=C(CCCCc1ccccc1)C(F)(F)C(F)(F)F [compound 2, 1,1,1,2,2-pentafluoro-7-phenylheptan-3-one] |  |  | < 25% | GVIA iPLA2 XI(50) determined previously (human GVIA iPLA2): 0.0073 mole fraction; therapeutic effect in experimental autoimmune encephalomyelitis [1]: beneficial therapeutic effect |
